Test results published in patent US20220220100A1 (SOLUTIA CANADA INC., priority 2019, published 2022).

Assays:
[1] = UV/Vis absorbance at 400 nm and Yellowness Index of the ring-open isomer; type: physicochemical; conditions: for Abs @ 400 nm, RO (Absorption of ring-open isomer at 400 nm): 2×10^−5 M solution, 1 cm pathlength cuvette
Text: In addition to the above, chromophores should have acceptable colour for both the ring-opened and ring-closed isomers. For example, the ring-open isomer of the chromophore should have a Yellowness Index (YI) of less than about 10 and an absorbance at 400 nm, as measured for a 2×10^−5 M solution in a 1 cm pathlength cuvette. For the ring-closed isomer of the chromophore, the lambda max should be between about 475 nm and 700 nm, tunable according to desired colour and number of chromophores in the composition.
(§1) UV/Vis spectra were obtained using an OceanOptics™ Spectrophotometer. A 2×10^−5 M solution of compound in solvent was prepared, and photofaded using visible light until absorption in the visible region of the spectrum stabilized. The sample was then irradiated with simulated sunlight (QSUN SS-150 Solar Simulator with xenon arc lamp) until the absorption spectrum stabilized. To obtain PSS in the presence of a UV blocking film, a second sample was prepared and irradiated as described, with a UV blocking film inserted in the light path when irradiating.

[2] = Photostationary state (PSS) and lambda max under simulated sunlight (solar simulator); type: physicochemical; conditions: for PSS (SS) / PSS (Steady State): absorbance at photostationary state, 2×10^−5 M solution; for PSS (SS): simulated sunlight (solar simulator); for λmax (nm): peak in the visible range, ring-closed (dark) state; for PSS (Steady State): head of Table 3
Text: The term “photostationary state” (PSS) refers to an equilibrium state of a compound or material where the rate of the ring closing (forward) reaction is equal to the rate of the ring-opening reaction, when irradiated with light in a given region of the spectrum. In other words, the ratio of the ring-open isomer to the ring-closed isomer is at an equilibrium. PSS may be expressed with reference to a light source, or with reference to a type of light, for example, QUV, Xenon-arc lamp, Q-SUN, natural or filtered sunlight, UV, VIS, IR, NIR, full spectrum or the like, or with reference to a particular wavelength or range of wavelengths, or in the presence or absence of a filter. Some ring-open and ring-closed isomers may undergo isomerization from one to the other in response to different wavelengths of light. If a wavelength of light is used where only one of the isomers absorbs, irradiation results in complete isomerization to the other form. 254 nm, 313 nm or 365 nm light are commonly used in studies of UV-absorbing isomers, but this may not be representative of the PSS under other light conditions that include the visible spectrum such as natural or simulated sunlight (“full spectrum” light) and/or with filters that block a portion of the UV component of the light. For example, in a ring-closed (dark) state, the magnitude of the maximum absorbance in the visible range may change with the light source (FIG. 1). The wavelength at this peak in the visible range may be referred to as lambda max, or λmax. […] When full spectrum light from a solar simulator (Xenon arc lamp) is used as a light source (line B), a balance is achieved between the ring-closed (dark) state induced by the UV component, and a ring-open (faded) state induced by the visible component of the light. Inclusion of a UV blocking layer in the light path (line A) may reduce the UV component of the light, and the ring-opening reaction induced by the visible light component becomes more prominent. […] Where desired, the ratio of ring-open and ring-closed isomers at a PSS may be quantified by ^1H NMR spectroscopy, such as described in U.S. Pat. No. 7,777,055. In various embodiments, compounds with an increased absorbance at a photostationary state (PSS), or increased contrast ratio, are an improvement over other diarylethene compounds. A compound with a greater absorbance in the visible range can be used in lesser quantities in a formulation or material to achieve a desired contrast ratio, whereas a compound with a lower absorbance at a PSS may need a higher concentration to achieve a desired contrast ratio.
Photostationary State (PSS)
as §1

Structure (SMILES)	YI (Yellowness Index) [1]	Abs @ 400 nm, RO (Absorption of ring-open isomer at 400 nm) [1]	PSS (SS) [2]	λmax (nm) [2]	PSS (Steady State) [2]
CC(C)(C)c1ccc(-c2oc3cc(OCCN4CCOC4=O)c(OCCN4CCOC4=O)cc3c2C2=C(c3cc(-c4cc5c(s4)C(C)(C)CCC5(C)C)sc3-c3cc4c(s3)C(C)(C)CCC4(C)C)C(F)(F)C(F)(F)C2(F)F)cc1 [Chromophore S390, 3,3′-(((3-(2-(2,5-bis(4,4,7,7-tetramethyl-4,5,6,7-tetrahydrobenzo[b]thiophen-2-yl)thiophen-3-yl)-3,3,4,4,5,5-hexafluorocyclopent-1-en-1-yl)-2-(4-(tert-butyl)phenyl)benzofuran-5,6-diyl)bis(oxy))bis(ethane-2,1-diyl))bis(oxazolidin-2-one)]	6.48	0.133	0.45	593 nm	
CC(C)(C)c1ccc(-c2oc3cc(OCCN4C(=O)CCC4=O)c(OCCN4C(=O)CCC4=O)cc3c2C2=C(c3cc(-c4cc(C(C)(C)C)cs4)sc3-c3cc(C(C)(C)C)cs3)C(F)(F)C(F)(F)C2(F)F)cc1	4.72	0.136	0.364	585 nm	
CCOC(=O)CCCOc1cc2oc(-c3ccc(C(C)(C)C)cc3)c(C3=C(c4cc(-c5sc(C(C)(C)C)cc5C)sc4-c4sc(C(C)(C)C)cc4C)C(F)(F)C(F)(F)C3(F)F)c2cc1OCCCC(=O)OCC [Chromophore S384, diethyl 4,4′-((2-(4-(tert-butyl)phenyl)-3-(2-(5,5″-di-tert-butyl-3,3″-dimethyl-[2,2′:5′,2″-terthiophen]-3′-yl)-3,3,4,4,5,5-hexafluorocyclopent-1-en-1-yl)benzofuran-5,6-diyl)bis(oxy))dibutanoate]	4.13	0.107		593 nm	0.342
CCOC(=O)CCCOc1cc2oc(-c3ccc(C(C)(C)C)cc3)c(C3=C(c4cc(-c5cc6c(s5)C(C)(C)CCC6(C)C)sc4-c4cc5c(s4)C(C)(C)CCC5(C)C)C(F)(F)C(F)(F)C3(F)F)c2cc1OCCCC(=O)OCC [Chromophore S387, ethyl 4-[(3-{2-[2,5-bis(4,4,7,7-tetramethyl-4,5,6,7-tetrahydro-1-benzothiophen-2-yl)thiophen-3-yl]-3,3,4,4,5,5-hexafluorocyclopent-1-en-1-yl}-2-(4-tert-butylphenyl)-6-(4-ethoxy-4-oxobutoxy)-1-benzofuran-5-yl)oxy]butanoate]	8.15	0.146	0.409	594 nm	
COc1cc2oc(-c3ccc(C(C)(C)C)cc3)c(C3=C(c4cc(-c5cc6c(s5)C(C)(C)CCC6(C)C)sc4-c4cc5c(s4)C(C)(C)CCC5(C)C)C(F)(F)C(F)(F)C3(F)F)c2cc1OC	8.12	0.131	0.358	594 nm	
COc1ccc2c(C3=C(c4cc(-c5ccc(C(C)(C)C)s5)sc4-c4ccc(C(C)(C)C)s4)C(F)(F)C(F)(F)C3(F)F)c(-c3ccc(C(C)(C)C)cc3)oc2c1	3.32	0.0809		575 nm	0.255
COCCCOc1cc2oc(-c3ccc(C(C)(C)C)cc3)c(C3=C(c4cc(-c5cc6c(s5)C(C)(C)CCC6(C)C)sc4-c4cc5c(s4)C(C)(C)CCC5(C)C)C(F)(F)C(F)(F)C3(F)F)c2cc1OCCCOC [Chromophore S388, 3-(2-(2,5-bis(4,4,7,7-tetramethyl-4,5,6,7-tetrahydrobenzo[b]thiophen-2-yl)thiophen-3-yl)-3,3,4,4,5,5-hexafluorocyclopent-1-en-1-yl)-2-(4-(tert-butyl)phenyl)-5,6-bis(3-methoxypropoxy)benzofuran]	6.3	0.132	0.38	600 nm	
CC(=O)Oc1cc2oc(-c3ccc(C(C)(C)C)cc3)c(C3=C(c4cc(-c5ccc(C(C)(C)C)s5)sc4-c4ccc(C(C)(C)C)s4)C(F)(F)C(F)(F)C3(F)F)c2cc1OC(C)=O [Chromophore S367, 2-(4-(tert-butyl)phenyl)-3-(2-(5,5″-di-tert-butyl-[2,2′:5′,2″-terthiophen]-3′-yl)-3,3,4,4,5,5-hexafluorocyclopent-1-en-1-yl)benzofuran-5,6-diyl diacetate]	5.47	0.102		583 nm	0.32
COc1cc2oc(-c3ccc(C(C)(C)C)cc3)c(C3=C(c4cc(-c5ccc(C(C)(C)C)s5)sc4-c4sc(C(C)(C)C)cc4C)C(F)(F)C(F)(F)C3(F)F)c2cc1OC [Chromophore S378, 2-(4-(tert-butyl)phenyl)-3-(2-(5,5″-di-tert-butyl-3-methyl-[2,2′:5′,2″-terthiophen]-3′-yl)-3,3,4,4,5,5-hexafluorocyclopent-1-en-1-yl)-5,6-dimethoxybenzofuran]	4.94	0.127		593 nm	0.351
COCCCOc1cc2oc(-c3ccc(C(C)(C)C)cc3)c(C3=C(c4cc(-c5cc(C(C)(C)C)cs5)sc4-c4cc(C(C)(C)C)cs4)C(F)(F)C(F)(F)C3(F)F)c2cc1OCCCOC	4.29	0.103	0.319	594 nm	
COCCOc1cc2oc(-c3ccc(C(C)(C)C)cc3)c(C3=C(c4cc(-c5ccc(C(C)(C)C)s5)sc4-c4ccc(C(C)(C)C)s4)C(F)(F)C(F)(F)C3(F)F)c2cc1OCCOC [Chromophore S364, 2-(4-(tert-butyl)phenyl)-3-(2-(5,5″-di-tert-butyl-[2,2′:5′,2″-terthiophen]-3′-yl)-3,3,4,4,5,5-hexafluorocyclopent-1-en-1-yl)-5,6-bis(2-methoxyethoxy)benzofuran]	4.21	0.105		593 nm	0.427
CCOC(=O)CCCOc1cc2oc(-c3ccc(C(C)(C)C)cc3)c(C3=C(c4cc(-c5ccc(C(C)(C)C)s5)sc4-c4ccc(C(C)(C)C)s4)C(F)(F)C(F)(F)C3(F)F)c2cc1OCCCC(=O)OCC [Chromophore S374, diethyl 4,4′-((2-(4-(tert-butyl)phenyl)-3-(2-(5,5″-di-tert-butyl-[2,2′:5′,2″-terthiophen]-3′-yl)-3,3,4,4,5,5-hexafluorocyclopent-1-en-1-yl)benzofuran-5,6-diyl)bis(oxy))dibutanoate]	6.76	0.144		590 nm	0.422
COc1cc2oc(-c3ccc(C(C)(C)C)cc3)c(C3=C(c4cc(-c5cc(C(C)(C)C)cs5)sc4-c4cc(C(C)(C)C)cs4)C(F)(F)C(F)(F)C3(F)F)c2cc1OC [Chromophore S377, 2-(4-(tert-butyl)phenyl)-3-(2-(4,4″-di-tert-butyl-[2,2′:5′,2″-terthiophen]-3′-yl)-3,3,4,4,5,5-hexafluorocyclopent-1-en-1-yl)-5,6-dimethoxybenzofuran]	4.89	0.101	0.308	593 nm	
COc1cc2oc(-c3ccc(C(C)(C)C)cc3)c(C3=C(c4cc(-c5cc6c(s5)C(C)(C)CCCC6(C)C)sc4-c4cc5c(s4)C(C)(C)CCCC5(C)C)C(F)(F)C(F)(F)C3(F)F)c2cc1OC [Chromophore S405]	7.26	0.143	0.381	598 nm	
